Results: US6218384A, “3-Oxo-pyrido(1,2-a)benzimidazole-4-carboxyl and 4-oxo-azepino(1,2-a)benzimidazole-5-carboxyl derivatives useful in treating central nervous system disorders” (Ortho-McNeil Pharmaceutical, Inc., priority 1997, dated 2001)
Where two headings read alike, the source gives them in different places.

Legend:
[1] = Suppression of metrazol-induced convulsions; assay type: in vivo, male CD1 mice; details: mice; for ED50: Mus musculus, 0.5 h; for Metrazol (ip) ED50: 30 min
Experimental: Selected compounds of the invention were tested for their ability to reduce metrazol-induced convulsions in mice (Swinyard, E. A. J. Am. Pharm Assoc. 1949, 38, 201). Male CD1 mice, were fasted at least 16 hours, were divided into equal groups and test compounds or vehicle were administered parenterally. Water was not withheld except during the period of observations. At the time of suspected peak activity, anti-pentylenetetrazol (anti-metrazol) activity was evaluated by the subcutaneous administration of the CD90 dose of metrazol (the dose of metrazol was determined from the dose-response curve producing clonic convulsions in 90% of animals that received the corresponding vehicle for this experiment). Metrazol was dissolved in 0.9% sodium chloride solution, and its dose volume was 10 ml/kg. Animals were housed individually for observation of clonic convulsions, tonic convulsions and death for a period of 30 min. Test compounds that blocked the clonic seizure component of the convulsion in at least 50% of the animals were considered active. The biological assay was considered to be valid if the effects of a known anticonvulsant (positive control) were detected, within the same experiment. Activity was reported as percent reduction of clonic convulsions from the vehicle group. The ED50 values of active compounds were calculated by the method of probits (Finney, D. J. 1971. Probit Analysis. London: Cambridge University Press) and are listed in Tables 1 to 5.

[2] = biological target: benzodiazepine site of the GABA-A receptor; assay: Benzodiazepine Receptor Binding Assay (inhibition of 3H-flunitrazepam binding); details: ca. 3 nM 3H-flunitrazepam
[3] = Suppression of anxiety (punished licking, conflict test) in the adult male rat; assay type: in vivo, male rats
Experimental: The anxiolytic activity of selected compounds of the invention was assessed by determining their ability to release (disinhibit) behavior that had been suppressed by punishment (Vogel, J. R. et al. Psychopharmacology 1971, 21, 1). Male rats were deprived of water for 48 hours and were deprived of food for 24 hours prior to testing. After the first 24 hours of water deprivation, they were placed in the conflict chamber for a training period; wherein, they were allowed 200 unpunished licks from a bottle containing tap water. The experiment was run the next day. At the expected time of peak activity, the animals were placed in the chamber and allowed access to tap water. […] Their first lick initiates a 3-min test session. Subsequently,every 20th lick was punished by a 0.2-s shock delivered via the stainless-steel drinking-tube. Vehicle-treated control animals generally were willing to accept a median number of 3 to 8 shocks per test session. […] The Wilcoxon rank-sum test (Mann-WhitneyU-test) was used to test for an increase (p<0.05, 1-tailed) in the median number of shocks in drug-treated groups, compared to a concurrently run vehicle-treated group. The biological assay is considered to be valid if the effects of a known anxiolytic (positive control) are detected, within the same experiment. A compound was considered active if there is a significant difference in the median number of shocks tolerated between the drug-treated group and the control group. The MED was defined as the minimum dose of the drug-treatment as analyzed using the Wilcoxon rank-sum test (SAS; Statistical Analysis System, version 5.16). If the MED value is greater than 10, an active dose of the compound being tested had not been determined.

[4] = Table 1, ip, clonic convulsions after sc CD90 metrazol, >30 = active dose not determined, read-out: Metrazol (ip) ED50
[5] = Table 1, 25° C., 10-20 min, >10,000 = not active
[6] = Table 1, ip, minimum effective dose, >10 = active dose not determined, read-out: Conflict (ip) MED
[7] = Table 2, ip, clonic convulsions, read-out: Antimetrazol (ip) ED50
[8] = Table 2, ip, minimum effective dose, read-out: Conflict (ip) MED
[9] = Table 5, parenteral, clonic convulsions, read-out: Antimetrazol ED50
[10] = Table 5, minimum effective dose, read-out: Conflict MED
[11] = Table 1, ip, clonic convulsions after sc CD90 metrazol, >30 = active dose not determined
[12] = Table 1, ip, minimum effective dose, >10 = active dose not determined
[13] = Table 3, parenteral, clonic convulsions, read-out: Antimetrazol ED50
[14] = Table 3, minimum effective dose, read-out: Conflict MED

| Compound | ED50 [1, 4] | IC50 [2, 5] | minimal effective dose [3, 6] | also measured |
| --- | --- | --- | --- | --- |
| O=C1CCN2C(=C1C(=O)Nc1ccccc1Cl)Nc1ccccc12 [compound 25] | 1 mg/kg | 12 nM | 10 mg/kg |  |
| O=C1CCN2C(=C1C(=O)Sc1ccccc1)Nc1ccccc12 [compound 119] |  |  |  | ED50 [1, 7]: > 30 mg/kg; IC50 ([2]; Table 2): 29 nM; minimal effective dose [3, 8]: > 10 mg/kg |
| O=C1CCN2C(=C1C(=O)Nc1c(F)cc(F)cc1F)Nc1ccccc12 [compound 93] | 1 mg/kg | 15 nM | 3 mg/kg |  |
| O=C1CCN2C(=C1C(=O)Nc1c(Cl)c(F)nc(F)c1Cl)Nc1ccccc12 [compound 67] | 10 mg/kg | 10000 nM | 10 mg/kg |  |
| CN(C)c1ccccc1NC(=O)C1=C2Nc3ccccc3N2CCC1=O [compound 87] | 10 mg/kg | 10000 nM | 10 mg/kg |  |
| Cc1cccc2c1NC1=C(C(=O)Nc3ccncc3)C(=O)CCN12 [compound 88] | 10 mg/kg | 390 nM | > 10 mg/kg |  |
| O=C1CCCN2C(=C1C(=O)Nc1ccccc1F)N(Cc1ccccc1)c1ccccc12 [compound 148] |  |  |  | ED50 [1, 9]: > 10 mg/kg; IC50 ([2]; Table 5): 150 nM; minimal effective dose [3, 10]: > 10 mg/kg |
| O=C1CCN2C(=C1C(=O)Nc1c(F)cccc1F)Nc1cc(F)ccc12 [compound 109] | 0.3 mg/kg | 1.3 nM | 3 mg/kg |  |
| O=C1CCN2C(=C1C(=O)Nc1nccnn1)Nc1ccccc12 [compound 49] | 10 mg/kg | 54 nM | > 10 mg/kg |  |
| O=C1CCN2C(=C1C(=O)Nc1c(F)cc(F)cc1Br)Nc1ccccc12 [compound 103] | > 10 mg/kg | 1200 nM | > 10 mg/kg |  |
| O=C1CCN2C(=C1C(=O)Nc1ncc(C(F)(F)F)cc1C(F)(F)F)Nc1ccccc12 [compound 78] | > 10 mg/kg | > 10000 nM | 10 mg/kg |  |
| O=C1CCN2C(=C1C(=O)Nc1ccncc1)Nc1ccccc12 [compound 35] | 2 mg/kg | 160 nM | 3 mg/kg |  |
| O=C1CCN2C(=C1C(=S)Nc1ccccc1)Nc1ccccc12 [compound 117] |  |  |  | ED50 [1, 7]: > 10 mg/kg; IC50 ([2]; Table 2): 360 nM; minimal effective dose [3, 8]: > 10 mg/kg |
| N-(2-Fluorophenyl)-6-methyl-4-oxo-1,2,3,4-tetrahydro-6H-azepino(1,2-a)benzimidazol-5-carboxamide [CP 147] |  | 51 nM |  | Metrazol (ip) ED50 [1, 11]: 5 mg/kg; Conflict (ip) MED [3, 12]: 10 mg/kg |
| COc1ccccc1NC(=O)C1=C2Nc3ccccc3N2CCC1=O [compound 26] | > 10 mg/kg | 990 nM | > 10 mg/kg |  |
| CN1C2=C(C(=O)Nc3ccccc3F)C(=O)CCCN2c2ccccc21 [compound 147] |  |  |  | ED50 [1, 9]: > 10 mg/kg; IC50 ([2]; Table 5): 22 nM; minimal effective dose [3, 10]: > 10 mg/kg |
| O=C1CCN2C(=C1C(=O)NN1CCOCC1)Nc1ccccc12 [compound 60] | > 10 mg/kg | 3000 nM | < 10 mg/kg |  |
| O=C1CCN2C(=C1C(=O)NCc1cccnc1)Nc1ccccc12 [compound 62] | > 10 mg/kg | 155 nM | > 10 mg/kg |  |
| CN1C2=C(C(=O)Nc3ccncc3)C(=O)CCCN2c2ccccc21 [compound 153] |  |  |  | ED50 [1, 9]: > 10 mg/kg; IC50 ([2]; Table 5): 2600 nM; minimal effective dose [3, 10]: > 10 mg/kg |
| O=C1CCN2C(=C1C(=O)Nc1c(F)c(F)c(F)c(F)c1F)Nc1ccccc12 [compound 91] | 1 to 10 mg/kg | 270 nM | 10 mg/kg |  |
| Cc1cc(NC(=O)C2=C3Nc4ccccc4N3CCC2=O)c2ccccc2n1 [compound 76] | 10 mg/kg | 10000 nM | > 10 mg/kg |  |

| Compound | ED50 [1, 4] | IC50 [2, 5] | minimal effective dose [3, 6] | also measured |
| --- | --- | --- | --- | --- |
| O=C1CCN2C(=C1C(=O)Nc1cc(F)ccc1F)Nc1ccccc12 [compound 98] | > 30 mg/kg | 12 nM | > 30 mg/kg |  |
| N-(4-Pyridyl)-1,2-dihydro-3-hydroxypyrido-(1,2-a)benzimidazole-4-carboxamide [CP 35] |  | 9.1 nM |  | Metrazol (ip) ED50 [1, 11]: 3 mg/kg; Conflict (ip) MED [3, 12]: 10 mg/kg |
| N-(2,6-Difluorophenyl)-3-hydroxypyrido(1,2-a)benzimidazole-4-carboxamide [CP 141] |  | 140 nM |  | Metrazol (ip) ED50 [1, 11]: 10 mg/kg; Conflict (ip) MED [3, 12]: 10 mg/kg |
| O=C1CCN2C(=C1C(=O)Nc1ccc3ncsc3c1)Nc1ccccc12 [compound 72] | > 10 mg/kg | 10000 nM | < 10 mg/kg |  |
| O=C1CCN2C(=C1C(=O)NCc1ccncc1)Nc1ccccc12 [compound 59] | > 10 mg/kg | 65 nM | > 10 mg/kg |  |
| COc1ccc2c(c1)NC1=C(C(=O)Nc3ccccc3)C(=O)CCN12 [compound 12] | 3 mg/kg | 40 nM | > 10 mg/kg |  |
| COc1ccc2c(c1)NC1=C(C(=O)NC3CCCCC3)C(=O)CCN12 [compound 37] | 10 mg/kg | 800 nM | 10 mg/kg |  |
| CCCN1C2=C(C(=O)Nc3c(F)cc(F)cc3F)C(=O)CCN2c2ccccc21 [compound 137] |  |  |  | ED50 [1, 13]: 1 mg/kg; IC50 ([2]; Table 3): < 100 nM; minimal effective dose [3, 14]: > 10 mg/kg |
| CN1C2=C(C(=O)Nc3ccncc3)C(=O)CCN2c2ccccc21 [compound 126] |  |  |  | ED50 [1, 13]: 3 mg/kg; IC50 ([2]; Table 3): 230 nM; minimal effective dose [3, 14]: < 10 mg/kg |
| CN(C)c1ccc(NC(=O)C2=C3Nc4cc(Cl)ccc4N3CCC2=O)cc1 [compound 80] | 10 mg/kg | 220 nM | > 10 mg/kg |  |
| Cc1cccc2c1NC1=C(C(=O)Nc3ccccc3)C(=O)CCN12 [compound 89] | 1 mg/kg | 10 nM | > 10 mg/kg |  |
| Phenyl-1,2-dihydro-3-hydroxypyrido(1,2-a)benzimidazole-4-carboxylate [CP 118] |  | 41 nM |  | Metrazol (ip) ED50 [1, 11]: 3 mg/kg; Conflict (ip) MED [3, 12]: 10 mg/kg |
| CN(C)c1ccc(NC(=O)C2=C3Nc4ccccc4N3CCCC2=O)cc1 [compound 149] |  |  |  | ED50 [1, 9]: > 10 mg/kg; IC50 ([2]; Table 5): 1120 nM; minimal effective dose [3, 10]: > 10 mg/kg |
| CC1CN2C(=C(C(=O)Nc3ccccc3)C1=O)N(C)c1ccccc12 (stereo not drawn) [compound 134] |  |  |  | ED50 [1, 13]: 3 mg/kg; IC50 ([2]; Table 3): 67 nM; minimal effective dose [3, 14]: > 10 mg/kg |
| O=C1CCN2C(=C1C(=O)Nc1ccc(F)cc1F)Nc1ccccc12 [compound 92] | 1 mg/kg | 10 nM | > 10 mg/kg |  |
| O=C1CCN2C(=C1C(=O)Nc1ccncn1)Nc1ccccc12 [compound 39] | > 10 mg/kg | 480 nM | 10 mg/kg |  |
| O=C1CCN2C(=C1C(=O)NC1CCC1)Nc1ccccc12 [compound 83] | > 30 mg/kg | 30 nM | 10 mg/kg |  |
| CCN1C2=C(C(=O)Nc3ccc(N(C)C)cc3)C(=O)CCN2c2ccccc21 [compound 125] |  |  |  | ED50 [1, 13]: 0.3 mg/kg; IC50 ([2]; Table 3): 72 nM; minimal effective dose [3, 14]: > 10 mg/kg |
| O=C1CCCN2C(=C1C(=O)Nc1ccc(F)cc1F)Nc1ccccc12 [compound 155] |  |  |  | ED50 [1, 9]: 10 mg/kg; IC50 ([2]; Table 5): 39 nM; minimal effective dose [3, 10]: > 10 mg/kg |
| O=C(Nc1ccccc1F)c1c(=O)ccn2c1[nH]c1ccccc12 [compound 139] |  |  |  | ED50 ([1]; Table 4, parenteral, clonic convulsions, read-out: Antimetrazol ED50): 0.3 mg/kg; IC50 ([2]; Table 4): 0.23 nM; minimal effective dose ([3]; Table 4, minimum effective dose, read-out: Conflict MED): 0.1 mg/kg |
| CCN(CC)c1ccc(NC(=O)C2=C3Nc4ccccc4N3CCC2=O)cc1 [compound 71] | 3 mg/kg | 1800 nM | > 10 mg/kg |  |
